Test results taken from patent US8551999B2, “Heterocyclic compound and pharmaceutical composition thereof” (Otsuka Pharmaceutical Co., Ltd., priority 2007, dated 2013).

melting point | Structure (SMILES)
254 to 260 °C (dec.) | Br.CN(C(=O)c1ccc(C(F)(F)F)cc1)c1ccc(Oc2ccc3c(c2)cc(C(=O)N2CCN(Cc4ccc(C(F)(F)F)cc4)CC2)n3C)nc1 [Example 553, N-Methyl-N-(6-{1-methyl-2-[4-(4-trifluoromethylbenzyl)piperazine-1-carbonyl]-1H-indol-5-yloxy}pyridin-3-yl)-4-trifluoromethyl-benzamide hydrobromide]
116.5 to 116.6 °C | Cc1ccc(S(=O)(=O)N(C)c2ccc(Oc3ccc4cc(C(=O)N5CCN(Cc6ccc(OC(CF)CF)cc6)CC5)n(C)c4c3)nc2)cc1 [Example 523, N-[6-(2-{4-[4-(2-Fluoro-1-fluoromethylethoxy)benzyl]piperazine-1-carbonyl}-1-methyl-1H-indol-6-yloxy)pyridin-3-yl]-4,N-dimethyl-benzenesulfonamide]
149 to 151 °C | CCOc1ccc(CN2CCN(C(=O)c3cc4cc(Oc5ccc(N(C)C(=O)c6ccc(C(F)(F)F)cc6)cn5)ccc4n3C)CC2)cn1.O=C(O)/C=C\C(=O)O [Example 423, N-(6-{2-[4-(6-Ethoxypyridin-3-ylmethyl)piperazine-1-carbonyl]-1-methyl-1H-indol-5-yloxy}pyridin-3-yl)-N-methyl-4-trifluoromethyl-benzamide maleate]

Second part, the compound before the results:

Structure (SMILES) | melting point
CCCCCCCCOc1ccc(CN2CCN(C(=O)c3cc4cc(Oc5ccc(N(C)C(=O)c6ccc(C(F)(F)F)cc6)cn5)ccc4n3C)CC2)cc1.O=C(O)/C=C\C(=O)O [Example 414, N-Methyl-N-(6-{1-methyl-2-[4-(4-octyloxybenzyl)piperazine-1-carbonyl]-1H-indol-5-yloxy}pyridin-3-yl)-4-trifluoromethyl-benzamide maleate] | 125 to 126 °C
Br.CN(C(=O)c1ccc(C(F)(F)F)cc1)c1ccc(Oc2cccc3cc(C(=O)N4CCN(Cc5ccc(C#N)cc5)CC4)n(C)c23)nc1 [Example 324, N-(6-{2-[4-(4-Cyanobenzyl)piperazine-1-carbonyl]-1-methyl-1H-indol-7-yloxy}pyridin-3-yl)-N-methyl-4-trifluoromethylbenzamide hydrobromide] | 200 to 201 °C
Br.CN(C(=O)c1ccc(OC(F)F)cc1)c1ccc(Oc2ccc3cc(C(=O)N4CCN(Cc5ccc(OC(F)F)cc5)CC4)n(C)c3c2)nc1 [Example 282, 4-Difluoromethoxy-N-(6-{2-[4-(4-difluoromethoxybenzyl)piperazine-1-carbonyl]-1-methyl-1H-indol-6-yloxy}pyridin-3-yl)-N-methyl-benzamide hydrobromide] | 198.7 to 200.5 °C
Br.COc1ccc(CN2CCN(C(=O)c3cc4cc(Oc5ccc(NC(=O)c6ccc(C(F)(F)F)c(C)c6)cn5)ccc4n3C)CC2)cc1 [Example 19, N-(6-{2-[4-(4-Methoxybenzyl)piperazine-1-carbonyl]-1-methyl-1H-indol-5-yloxy}pyridin-3-yl)-3-methyl-4-trifluoromethylbenzamide hydrobromide] | 188 to 191 °C
Br.CN(C(=O)c1ccc(OC(F)F)cc1)c1ccc(Oc2ccc3cc(C(=O)N4CCN(Cc5ccc(OCC(F)F)cc5)CC4)n(C)c3c2)nc1 [Example 283, N-[6-(2-{4-[4-(2,2-Difluoroethoxy)benzyl]piperazine-1-carbonyl}-1-methyl-1H-indol-6-yloxy)pyridin-3-yl]-4-difluoromethoxy-N-methylbenzamide hydrobromide] | 196.9 to 198.6 °C
CCCc1ccc(CN2CCN(C(=O)c3cc4cc(Oc5ccc(N(C)C(=O)c6ccc(C(F)(F)F)cc6)cn5)ccc4n3C)CC2)cc1.O=C(O)/C=C\C(=O)O [Example 411, N-Methyl-N-(6-{1-methyl-2-[4-(4-propylbenzyl)piperazine-1-carbonyl]-1H-indol-5-yloxy}pyridin-3-yl)-4-trifluoromethyl-benzamide maleate] | 132 to 134 °C
